Measured values taken from US8658666B2, “Substituted imidazoquinolines and imidazonaphthyridines” (3M Innovative Properties Company, priority 2005, dated 2014).

With `CCc1nc2c(N)nc3cc(CCCNS(C)(=O)=O)ccc3c2n1CC1CCOCC1` [Example 124, N-{3-[4-Amino-2-ethyl-1-(tetrahydro-2H-pyran-4-ylmethyl)-1H-imidazo[4,5-c]quinolin-7-yl]propyl}methanesulfonamide] the melting point was 168 to 170 °C.

For `CCc1nc2c(N)nc3cc(CCCNC(C)=O)ccc3c2n1CC1CCOCC1` [Example 125, N-{3-[4-amino-2-ethyl-1-(tetrahydro-2H-pyran-4-ylmethyl)-1H-imidazo[4,5-c]quinolin-7-yl]propyl}acetamide], the melting point was 209 to 211 °C.

`CCc1nc2c(N)nc3cc(CCCNC(=O)NC(C)C)ccc3c2n1CC1CCOCC1` [Example 126, N-{3-[4-amino-2-ethyl-1-(tetrahydro-2H-pyran-4-ylmethyl)-1H-imidazo[4,5-c]quinolin-7-yl]propyl}-N′-isopropylurea] showed a melting point of 213 to 216 °C.

In the case of `COc1cccc(CNCc2ccc3nc(N)c4ncn(CC(C)C)c4c3c2)c1` [Example 127, 1-Isobutyl-8-{[(3-methoxybenzyl)amino]methyl}-1H-imidazo[4,5-c]quinolin-4-amine], the melting point is reported as 125 to 126 °C.

In the case of `CCc1nc2c(N)nc3cc(/C=C/C(=O)N(C)C)ccc3c2n1CC1CCOCC1` [Example 128, (2E)-3-[4-Amino-2-ethyl-1-(tetrahydro-2H-pyran-4-ylmethyl)-1H-imidazo[4,5-c]quinolin-7-yl]-N,N-dimethylprop-2-enamide], the melting point is reported as > 260 °C.

`CCc1nc2c(N)nc3cc(CCC(=O)N(C)C)ccc3c2n1CC1CCOCC1` [Example 129, 3-[4-Amino-2-ethyl-1-(tetrahydro-2H-pyran-4-ylmethyl)-1H-imidazo[4,5-c]quinolin-7-yl]-N,N-dimethylpropanamide] showed a melting point of 219 to 220 °C.

In the case of `CCc1nc2c(N)nc3cc(/C=C/C(=O)N4CCOCC4)ccc3c2n1CC1CCOCC1` [Example 130, 2-Ethyl-7-[(1E)-3-morpholin-4-yl-3-oxoprop-1-enyl]-1-(tetrahydro-2H-pyran-4-ylmethyl)-1H-imidazo[4,5-c]quinolin-4-amine], the melting point is reported as > 260 °C.

Molecule `CCOC(=O)/C=C/c1ccc2c(c1)nc(N)c1nc(CC)n(CC3CCOCC3)c12` [Example 131, Ethyl (2E)-3-[4-amino-2-ethyl-1-(tetrahydro-2H-pyran-4-ylmethyl)-1H-imidazo[4,5-c]quinolin-7-yl]prop-2-enoate] has a melting point of 209 to 210 °C.

`CCOC(=O)CCc1ccc2c(c1)nc(N)c1nc(CC)n(CC3CCOCC3)c12` [Example 132, Ethyl 3-[4-amino-2-ethyl-1-(tetrahydro-2H-pyran-4-ylmethyl)-1H-imidazo[4,5-c]quinolin-7-yl]propanoate] showed a melting point of 172 to 173 °C.

Work on `CCOCc1nc2c(N)nc3cc(C=O)ccc3c2n1CC(C)(C)O` [Example 133, 4-Amino-2-(ethoxymethyl)-1-(2-hydroxy-2-methylpropyl)-1H-imidazo[4,5-c]quinoline-7-carbaldehyde] yielded a melting point of 203 to 205 °C.

For `CCOCc1nc2c(N)nc3cc(CCCO)ccc3c2n1CC(C)(C)O` [Example 134, 3-[4-Amino-2-(ethoxymethyl)-1-(2-hydroxy-2-methylpropyl)-1H-imidazo[4,5-c]quinolin-7-yl]propan-1-ol], the melting point was 177 to 178 °C.

`CCOCc1nc2c(N)nc3cc(CCCN4CCOCC4)ccc3c2n1CC(C)(C)O` [Example 135, 1-[4-Amino-2-(ethoxymethyl)-7-(3-morpholin-4-ylpropyl)-1H-imidazo[4,5-c]quinolin-1-yl]-2-methylpropan-2-ol] gave a melting point of 132 to 133 °C.
